According to the supplement of paper PMC10331698:
± gives the standard deviation of the averaged measurements.

Legend:
Assay in all cases: level (log10 ratio to DMSO vehicle control); higher = higher biomarker level / cell amount than vehicle control
[1] = compound: OCC(F)(F)C(F)(F)C(F)(F)C(F)(F)C(F)(F)C(F)(F)F [6:1 Fluorotelomer alcohol]; settings: in DMSO
Procedure: (§1)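 BioMAP Diversity Plus panel of 12 human primary cell co-culture systems (3C, 4H, LPS, SAg, BT, BF4T, BE3C, CASM3C, HDF3CGF, KF3CT, MyoF, Mphg). Compounds were added 1 h before stimulation and left for 24 h (MyoF 48 h; BT 72 h for soluble read-outs or 6 d for IgG). Biomarkers were read by ELISA, cytotoxicity by SRB, PBMC viability and proliferation by Alamar Blue. Each well value was divided by the mean of 8 DMSO control wells on the same plate and log10 transformed; duplicate blinded samples were tested at 4 concentrations.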

[2] = compound: FC(F)(I)C(F)(F)C(F)(F)C(F)(F)C(F)(F)C(F)(F)I [1,6-Diiodoperfluorohexane]; settings: 6700 nM; in DMSO
Procedure: as §1

[3] = compound: C=CC(=O)OCCC(F)(F)C(F)(F)C(F)(F)C(F)(F)C(F)(F)C(F)(F)C(F)(F)C(F)(F)F [8:2 Fluorotelomer acrylate]; settings: in DMSO
Procedure: as §1

[4] = compound: OCC(F)(F)C(F)(F)C(F)(F)C(F)(F)C(F)(F)C(F)(F)C(F)(F)C(F)(F)CO [1H,1H,10H,10H-Perfluorodecane-1,10-diol]; settings: in DMSO
Procedure: as §1

Perfluoropinacol = compound: OC(C(F)(F)F)(C(F)(F)F)C(O)(C(F)(F)F)C(F)(F)F [Perfluoropinacol]; settings: in DMSO
Procedure: as §1

[5] = compound: OCC(F)(F)C(F)(F)C(F)(F)C(F)(F)C(F)(F)C(F)(F)C(F)(F)C(F)(F)C(F)(F)C(F)(F)C(F)(F)F [11:1 Fluorotelomer alcohol]; settings: in DMSO
Procedure: as §1

[6] = compound: O=C(CC(=O)C(F)(F)C(F)(F)C(F)(F)F)c1cccs1 [(Perfluorobutyryl)-2-thenoylmethane]; settings: in DMSO
Procedure: as §1

Test System	level (log10) ([1]; 6700 nM)	level (log10) ([1]; 20000 nM)	level (log10) ([1]; 60000 nM)	level (log10) [2]	level (log10) ([3]; 6700 nM)	level (log10) ([3]; 20000 nM)	level (log10) ([3]; 60000 nM)	level (log10) ([4]; 6700 nM)	level (log10) ([4]; 20000 nM)	level (log10) ([4]; 60000 nM)	level (log10) (Perfluoropinacol; 6700 nM)	level (log10) (Perfluoropinacol; 20000 nM)	level (log10) ([5]; 1100 nM)	level (log10) ([5]; 3300 nM)	level (log10) ([5]; 10000 nM)	level (log10) ([6]; 6700 nM)	level (log10) ([6]; 20000 nM)
3C:SRB	-0.0045 ± 0.0092	-0.0025 ± 0.012	-0.21 ± 0.3	0.03	-0.001 ± 0.03	0.008 ± 0.018	0.0075 ± 0.005	0.01 ± 0.034	-0.021 ± 0.033	-0.106	-0.0665 ± 0.013	-0.188 ± 0.0028	-0.043 ± 0.0014	-0.115 ± 0.021	-0.116 ± 0.014	-0.0035 ± 0.028	-0.139 ± 0.021
LPS:CD69	-0.017 ± 0.0042	-0.0135 ± 0.0064	-0.0085 ± 0.005	-0.019	0.012 ± 0.054	-0.044 ± 0.05	-0.052 ± 0.061	-0.0215 ± 0.073	-0.039 ± 0.045	-0.111	-0.105 ± 0.063	-0.192 ± 0.064	0.006 ± 0.021	0.004	-0.003 ± 0.031	-0.132 ± 0.0014	-0.0555 ± 0.07
3C:CXCL8/IL-8	-0.0095 ± 0.013	0.0145 ± 0.011	0.055 ± 0.057	-0.008	0.009 ± 0.0057	0.012 ± 0.035	0.0555 ± 0.049	-0.013 ± 0.035	-0.007 ± 0.024	0.03	0.0215 ± 0.012	-0.0255 ± 0.026	-0.022 ± 0.027	-0.0245 ± 0.046	0.019 ± 0.082	-0.112 ± 0.0035	-0.091 ± 0.014
BF4T:MMP-9	-0.023 ± 0.016	-0.004 ± 0.011	0.014 ± 0.0085	-0.059	-0.0255 ± 0.0064	-0.0215 ± 0.012	-0.021 ± 0.042	-0.0185 ± 0.015	-0.063 ± 0.0028	-0.135	-0.0245 ± 0.00071	-0.0515 ± 0.0092	-0.025 ± 0.03	-0.02 ± 0.0071	-0.03 ± 0.0057	-0.0225 ± 0.0021	-0.146 ± 0.039
BE3C:CXCL10/IP-10	0.0355 ± 0.005	0.028 ± 0.011	0.0075 ± 0.025	0.008	-0.0215 ± 0.015	-0.0165 ± 0.023	0.0005 ± 0.05	-0.0205 ± 0.013	-0.19 ± 0.088	-0.94	-0.0315 ± 0.0035	-0.118 ± 0.0071	-0.0345 ± 0.035	-0.0745 ± 0.03	-0.043 ± 0.0071	-0.0615 ± 0.00071	-0.578 ± 0.018
